In patent publication US7799758B2, “Peptides and peptide derivatives as well as pharmaceutical compositions containing the same” (priority 2006, dated 2010):
No end group written: not given here.

Test system: mouse-adapted Dengue virus (DEN-2, strain P23085)
Test: model of Dengue virus infection in mice
Assay type: in vivo
Conditions: BALB/c mice infected s.c. with DEN-2 at 1-2 LD50, 4.8 mg/kg/day i.m. once a day for 5 days from day 3, read at day 10, p < 0.05
Experimental: A further possibility for establishing the biological effect in vivo is the reduction or complete suppression of mortality because of an infection with haemolytic viruses or bacteria. For this purpose, mice are, as described in Example 8, for instance infected with a dose of Dengue viruses, wherein 50% of the animals die within a period of 5-20 days after infection. The inventive compounds bring about a reduction of this mortality at a dose ranging from 0.001 to 500 mg/kg body weight, preferably at a dose ranging from […] body weight.
The biological effect of the compound of Example 3 was established in a model of Dengue virus infection in mice. 5-week-old male BALB/c mice were divided into 2 groups. All animals were infected subcutaneously with a mouse-adapted Dengue virus (DEN-2, strain P23085 at a dose of 1-2 LD50. 15 mice received 0.1 ml of 0.8% saline as intramuscular injection (control). The treated animals received 4.8 mg/kg/day of the agent of Example 3 as an intramuscular injection (diluted in 0.1 ml of 0.8% saline) once a day for 5 days, starting on day 3 after the virus infection.
At the end of the treatment period (day 10) the survival rates were compared.

Gly-His-Arg-Pro-Leu-Asp-Lys-Lys-Arg-Glu-Glu-Ala-Pro-Ser-Leu-Arg-Pro-Ala-Pro-Pro-Pro-Ile-Ser-Gly-Gly-Gly-Tyr-Arg-Cys-(S-succinimido-PEG20K)-amide (GHRPLDKKREEAPSLRPAPPPISGGGYRC(succinimido‑PEG20K)-NH2) [Example 3]
Mortality Percentage: 0%
Mortality (dead/total animals): 0/10
